Data reported in patent US9765069B2, “Antimicrobial compounds” (OXFORD UNIVERSITY INNOVATION LIMITED, priority 2012, dated 2017).
In brackets after ≈: the same amount, converted by molar mass.

Tests used:
[1] = test system: S1; experiment: MIC determination (bacteria), strain S1; assay type: cell-based, S. aureus; details: 2-fold broth dilution; for MIC: Staphylococcus aureus
Description: (§1) MIC determination (bacteria); MICs were determined based on Clinical and Laboratory Standards Institute (CLSI) methodology (Methods for dilution antimicrobial susceptibility tests for bacteria that grow aerobically; Approved Standard—seventh edition. 2006, M7-A7, CLSI, Wayne Pa.) by a 2-fold broth dilution technique in Mueller Hinton (pH7.4 Biorad). For S. pneumoniae, the medium was supplemented with 2.5% laked horse blood. For H. influenzae, the medium was haemophilus test medium (H.T.M.). Overnight cultures were diluted to obtain the final inoculum of 10^5 cfu/well. Incubation was 37° C. overnight in ambient air. The MIC was defined as the lowest concentration which inhibited all visual growth and expressed in μg/ml. For each bacterial species, all of the molecules were tested in the same experiment in order to give a head-to-head comparison.

[2] = test system: S26; experiment: MIC determination (bacteria), strain S26; assay type: cell-based, S. aureus; details: 2-fold broth dilution; for MIC: Staphylococcus aureus
Description: as §1

[3] = test system: S4; experiment: MIC determination (bacteria), strain S4; assay type: cell-based, S. aureus; details: 2-fold broth dilution; for MIC: Staphylococcus aureus
Description: as §1

[4] = test system: S2 (S. aureus 2, MRSA in vivo); experiment: MIC determination (bacteria), strain S2; assay type: cell-based; details: 2-fold broth dilution; for MIC: Staphylococcus aureus, MRSA
Description: as §1

[5] = test system: E1; experiment: MIC determination (bacteria), strain E1; assay type: cell-based, enterococcus; details: 2-fold broth dilution; for MIC: Enterococcus
Description: as §1

[6] = test system: E2; experiment: MIC determination (bacteria), strain E2; assay type: cell-based, enterococcus; details: 2-fold broth dilution; for MIC: Enterococcus
Description: as §1

[7] = test system: P1; experiment: MIC determination (bacteria), strain P1; assay type: cell-based, S. pneumoniae; details: 2-fold broth dilution; for MIC: Streptococcus pneumoniae
Description: as §1

[8] = test system: P9; experiment: MIC determination (bacteria), strain P9; assay type: cell-based, S. pneumoniae; details: 2-fold broth dilution; for MIC: Streptococcus pneumoniae
Description: as §1

[9] = test system: P9B; experiment: MIC determination (bacteria), strain P9B; assay type: cell-based, S. pneumoniae; details: 2-fold broth dilution; for MIC: Streptococcus pneumoniae
Description: as §1

[10] = test system: H3; experiment: MIC determination (bacteria), strain H3; assay type: cell-based, H. influenzae; details: haemophilus test medium; for MIC: Haemophilus influenzae
Description: as §1

[11] = test system: H4; experiment: MIC determination (bacteria), strain H4; assay type: cell-based, H. influenzae; details: haemophilus test medium; for MIC: Haemophilus influenzae
Description: as §1

SMILES | MIC S1 ([1]; Table 2) | MIC S26 ([2]; Table 2) | MIC S4 ([3]; Table 2) | MIC S2 ([4]; Table 2) | MIC E1 ([5]; Table 2) | MIC E2 ([6]; Table 2) | MIC P1 ([7]; Table 2) | MIC P9 ([8]; Table 2) | MIC P9B ([9]; Table 2) | MIC H3 ([10]; Table 2) | MIC H4 ([11]; Table 2 and its footnote f) | other results
CCCC(=O)N1CC(=O)C(=C(O)CC23CC4CC(CC(C4)C2)C3)C1=O [27j] | 16 µg/mL (≈ 46.3 µM) | 16 µg/mL (≈ 46.3 µM) | 16 µg/mL (≈ 46.3 µM) | 16 µg/mL (≈ 46.3 µM) | 8 µg/mL (≈ 23.2 µM) | 8 µg/mL (≈ 23.2 µM) | 4 µg/mL (≈ 11.6 µM) | 4 µg/mL (≈ 11.6 µM) | 4 µg/mL (≈ 11.6 µM) | 16 µg/mL (≈ 46.3 µM) | 4 µg/mL (≈ 11.6 µM) | 
CCCCCCC(=O)N1CC(=O)C(=C(O)CCc2ccc(SC)cc2)C1=O [28d] | 4 µg/mL (≈ 10.3 µM) | 32 µg/mL (≈ 82.2 µM) | 16 µg/mL (≈ 41.1 µM) | 8 µg/mL (≈ 20.5 µM) | 1 µg/mL (≈ 2.57 µM) | 2 µg/mL (≈ 5.13 µM) | 0.5 µg/mL (≈ 1.28 µM) | 0.5 µg/mL (≈ 1.28 µM) | 4 µg/mL (≈ 10.3 µM) | 4 µg/mL (≈ 10.3 µM) | 1 µg/mL (≈ 2.57 µM) | 
CCCCCCCCCCC(O)=C1C(=O)C(CCSC)N(C(C)=O)C1=O (stereo not shown) [24a] |  |  |  |  |  |  |  |  |  |  |  | MIC S1 ([1]; Table 1): 0.5 µg/mL (≈ 1.3 µM); MIC S26 ([2]; Table 1): 8 µg/mL (≈ 20.9 µM); MIC S4 ([3]; Table 1): 4 µg/mL (≈ 10.4 µM); MIC S2 ([4]; Table 1): 2 µg/mL (≈ 5.21 µM); MIC E1 ([5]; Table 1): 0.5 µg/mL (≈ 1.3 µM); MIC E2 ([6]; Table 1): 0.5 µg/mL (≈ 1.3 µM); MIC P1 ([7]; Table 1): 0.5 µg/mL (≈ 1.3 µM); MIC P9 ([8]; Table 1): 0.25 µg/mL (≈ 0.652 µM); MIC P9B ([9]; Table 1): 2 µg/mL (≈ 5.21 µM); MIC H3 ([10]; Table 1): 8 µg/mL (≈ 20.9 µM); MIC H4 ([11]; Table 1): 4 µg/mL (≈ 10.4 µM)
Cc1ccccc1C(=O)N1CC(=O)C(=C(O)CCCCC2CCCCC2)C1=O [27s] | 16 µg/mL (≈ 41.7 µM) | 16 µg/mL (≈ 41.7 µM) | 16 µg/mL (≈ 41.7 µM) | 16 µg/mL (≈ 41.7 µM) | 8 µg/mL (≈ 20.9 µM) | 8 µg/mL (≈ 20.9 µM) | 2 µg/mL (≈ 5.22 µM) | 2 µg/mL (≈ 5.22 µM) | 16 µg/mL (≈ 41.7 µM) | 32 µg/mL (≈ 83.4 µM) | 4 µg/mL (≈ 10.4 µM) | 
O=C1CCN(C(=O)c2ccccc2)C(=O)C1=C(O)CCCCC1CCCCC1 [19c] | 1 µg/mL (≈ 2.61 µM) | 2 µg/mL (≈ 5.22 µM) | 2 µg/mL (≈ 5.22 µM) | 2 µg/mL (≈ 5.22 µM) | 2 µg/mL (≈ 5.22 µM) | 2 µg/mL (≈ 5.22 µM) | 1 µg/mL (≈ 2.61 µM) | 1 µg/mL (≈ 2.61 µM) | 4 µg/mL (≈ 10.4 µM) | 16 µg/mL (≈ 41.7 µM) | 8 µg/mL (≈ 20.9 µM) | 
CCCCCCC(=O)N1CC(=O)C(=C(O)CC2CCCCC2)C1=O [27b] | 2 µg/mL (≈ 5.96 µM) | 4 µg/mL (≈ 11.9 µM) | 4 µg/mL (≈ 11.9 µM) | 4 µg/mL (≈ 11.9 µM) | 2 µg/mL (≈ 5.96 µM) | 2 µg/mL (≈ 5.96 µM) | 1 µg/mL (≈ 2.98 µM) | 0.5 µg/mL (≈ 1.49 µM) | 2 µg/mL (≈ 5.96 µM) | 4 µg/mL (≈ 11.9 µM) | 0.5 µg/mL (≈ 1.49 µM) | 
CCCC(=O)N1CC(=O)C(=C(O)CCCCC2CCCCC2)C1=O [27o] | 4 µg/mL (≈ 11.9 µM) | 8 µg/mL (≈ 23.8 µM) | 16 µg/mL (≈ 47.7 µM) | 4 µg/mL (≈ 11.9 µM) | 4 µg/mL (≈ 11.9 µM) | 2 µg/mL (≈ 5.96 µM) | 0.5 µg/mL (≈ 1.49 µM) | 0.5 µg/mL (≈ 1.49 µM) | 4 µg/mL (≈ 11.9 µM) | 8 µg/mL (≈ 23.8 µM) | 2 µg/mL (≈ 5.96 µM) | 
CCCCCC(O)=C1C(=O)C(CCSC)N(C(=O)C2CCCCC2)C1=O (stereo not shown) [24d] |  |  |  |  |  |  |  |  |  |  |  | MIC S1 ([1]; Table 1): 2 µg/mL (≈ 5.24 µM); MIC S26 ([2]; Table 1): 4 µg/mL (≈ 10.5 µM); MIC S4 ([3]; Table 1): 2 µg/mL (≈ 5.24 µM); MIC S2 ([4]; Table 1): 4 µg/mL (≈ 10.5 µM); MIC E1 ([5]; Table 1): 2 µg/mL (≈ 5.24 µM); MIC E2 ([6]; Table 1): 2 µg/mL (≈ 5.24 µM); MIC P1 ([7]; Table 1): 2 µg/mL (≈ 5.24 µM); MIC P9 ([8]; Table 1): 2 µg/mL (≈ 5.24 µM); MIC P9B ([9]; Table 1): 4 µg/mL (≈ 10.5 µM); MIC H3 ([10]; Table 1): 32 µg/mL (≈ 83.9 µM); MIC H4 ([11]; Table 1): 4 µg/mL (≈ 10.5 µM)
CSCCC1C(=O)/C(=C(/O)CC(C)(C)CC(=O)OCCC23CC4CC(CC(C4)C2)C3)C(=O)N1C(C)=O (stereo not shown) [31i] |  |  |  |  |  |  |  |  |  |  |  | MIC ([1]; Table 2): 8 µg/mL (≈ 15.4 µM); MIC ([2]; Table 2): > 64 µg/mL; MIC ([3]; Table 2): 16 µg/mL (≈ 30.8 µM); MIC ([4]; Table 2): 8 µg/mL (≈ 15.4 µM); MIC ([5]; Table 2): 2 µg/mL (≈ 3.85 µM); MIC ([6]; Table 2): 1 µg/mL (≈ 1.92 µM); MIC ([7]; Table 2): 2 µg/mL (≈ 3.85 µM); MIC ([8]; Table 2): 1 µg/mL (≈ 1.92 µM); MIC ([9]; Table 2): 4 µg/mL (≈ 7.7 µM); MIC ([10]; Table 2): > 64 µg/mL; MIC ([11]; Table 2 and its footnote f): 8 µg/mL (≈ 15.4 µM)
CSCCC1C(=O)C(=C(O)CC23CC4CC(CC(C4)C2)C3)C(=O)N1C(C)=O (stereo not shown) [31d] | 16 µg/mL (≈ 40.9 µM) | 32 µg/mL (≈ 81.7 µM) | 16 µg/mL (≈ 40.9 µM) | 32 µg/mL (≈ 81.7 µM) | 16 µg/mL (≈ 40.9 µM) | 16 µg/mL (≈ 40.9 µM) | 8 µg/mL (≈ 20.4 µM) | 8 µg/mL (≈ 20.4 µM) | 8 µg/mL (≈ 20.4 µM) | 32 µg/mL (≈ 81.7 µM) | 4 µg/mL (≈ 10.2 µM) | 
O=C1CCN(C(=O)c2ccccc2)C(=O)/C1=C(\O)CCc1ccc(-c2ccccc2C(F)(F)F)o1 [19e] | 4 µg/mL (≈ 8.27 µM) | 4 µg/mL (≈ 8.27 µM) | 4 µg/mL (≈ 8.27 µM) | 4 µg/mL (≈ 8.27 µM) | 2 µg/mL (≈ 4.14 µM) | 2 µg/mL (≈ 4.14 µM) | 2 µg/mL (≈ 4.14 µM) | 2 µg/mL (≈ 4.14 µM) | 8 µg/mL (≈ 16.5 µM) | >64 µg/mL | 16 µg/mL (≈ 33.1 µM) | 
CCCCCCCCCCCCCC(O)=C1C(=O)CCN(C(=O)c2ccccc2)C1=O [25c] |  |  |  |  |  |  |  |  |  |  |  | MIC S1 ([1]; Table 1): 2 µg/mL (≈ 4.68 µM); MIC S26 ([2]; Table 1): 4 µg/mL (≈ 9.35 µM); MIC S4 ([3]; Table 1): 1 µg/mL (≈ 2.34 µM); MIC S2 ([4]; Table 1): 2 µg/mL (≈ 4.68 µM); MIC E1 ([5]; Table 1): 2 µg/mL (≈ 4.68 µM); MIC E2 ([6]; Table 1): 1 µg/mL (≈ 2.34 µM); MIC P1 ([7]; Table 1): 1 µg/mL (≈ 2.34 µM); MIC P9 ([8]; Table 1): 1 µg/mL (≈ 2.34 µM); MIC P9B ([9]; Table 1): 8 µg/mL (≈ 18.7 µM); MIC H3 ([10]; Table 1): >64 µg/mL; MIC H4 ([11]; Table 1): 32 µg/mL (≈ 74.8 µM)
CCCCCCC(=O)N1CC(=O)C(=C(O)CCCCc2ccccc2)C1=O [28b] | 2 µg/mL (≈ 5.38 µM) | 4 µg/mL (≈ 10.8 µM) | 2 µg/mL (≈ 5.38 µM) | 2 µg/mL (≈ 5.38 µM) | 2 µg/mL (≈ 5.38 µM) | 1 µg/mL (≈ 2.69 µM) | 0.5 µg/mL (≈ 1.35 µM) | 0.25 µg/mL (≈ 0.673 µM) | 2 µg/mL (≈ 5.38 µM) | 8 µg/mL (≈ 21.5 µM) | 2 µg/mL (≈ 5.38 µM) | 
CCCCCCC(=O)N1CC(=O)/C(=C(/O)CO[C@H]2C[C@@H](C)CC[C@@H]2C(C)C)C1=O [27n] |  |  |  |  |  |  |  |  |  |  |  | MIC ([1]; Table 2): > 64 µg/mL; MIC ([2]; Table 2): > 64 µg/mL; MIC ([3]; Table 2): > 64 µg/mL; MIC ([4]; Table 2): > 64 µg/mL; MIC ([5]; Table 2): 8 µg/mL (≈ 19.6 µM); MIC ([6]; Table 2): 2 µg/mL (≈ 4.91 µM); MIC ([7]; Table 2): 0.5 µg/mL (≈ 1.23 µM); MIC ([8]; Table 2): 0.5 µg/mL (≈ 1.23 µM); MIC ([9]; Table 2): 8 µg/mL (≈ 19.6 µM); MIC ([10]; Table 2): > 64 µg/mL; MIC ([11]; Table 2 and its footnote f): 2 µg/mL (≈ 4.91 µM)
